Converted amounts (≈) assume the structure as drawn.

The source of these data is ChEMBL document CHEMBL1151614, “Microbial transformations of natural antitumor agents, 25. Conversions of 3-ketoaphidicolin” (1984).

This test concerns P388. As to the kind of experiment: In vivo antitumor activity against mouse P388 cells. Format: functional.
For the molecule `C[C@]12CCC(=O)[C@@](C)(CO)[C@@H]1[C@H](O)C[C@H]1C[C@@H]3C[C@@]12CC[C@]3(O)CO`, the ED50 was 100 µg/mL (≈ 284 µM). Under `C[C@@]1(CO)[C@@H](O)CC[C@@]2(C)[C@H]1CC[C@H]1C[C@@H]3C[C@@]12CC[C@]3(O)CO` stands 13 µg/mL (≈ 38.4 µM). The same measure for `C[C@@]1(CO)[C@H](O)CC[C@@]2(C)[C@H]1CC[C@H]1C[C@@H]3C[C@@]12CC[C@]3(O)CO` [APHIDICOLIN]: 0.13 µg/mL (≈ 0.384 µM); for `C[C@]12CCC(=O)[C@@](C)(CO)[C@@H]1CC[C@H]1C[C@@H]3C[C@@]12CC[C@]3(O)CO`: 2.4 µg/mL (≈ 7.13 µM).

The molecule `C[C@@H]1C(=O)CC[C@@]2(C)[C@H]1CC[C@H]1C[C@@H]3C[C@@]12CC[C@]3(O)CO` displayed an ED50 of 12 µg/mL (≈ 39.2 µM). The same measure for `C[C@@]1(CO)[C@H](O)CC[C@@]2(C)[C@H]1[C@H](O)C[C@H]1C[C@@H]3C[C@@]12CC[C@]3(O)CO`: 18 µg/mL (≈ 50.8 µM). Under `C[C@@]1(C(=O)O)[C@H](O)CC[C@@]2(C)[C@H]1CC[C@H]1C[C@@H]3C[C@@]12CC[C@]3(O)CO` stands 2.2 µg/mL (≈ 6.24 µM).
